From patent US6440443B1, “Microencapsulation formulations of cadusafos” (priority 1998, dated 2002)

System: root-knot nematode (RKN), Meloidogyne incognita
Test: Root-knot nematode control on tomato, pots infested 48 hours after soil treatment (set 1), gall rating
Format: in vivo
Conditions: rating scale 0-10
Experimental: Formulations AA to FF, excluding DD, were tested for efficacy and persistence in soil for controlling root-knot nematode (RKN), Meloidogyne incognita, on tomato. A three-week old tomato (Lycopersicon esculentum, var “Rutgers”) was planted in a 10 cm square pot containing a nonsterile 50:50 sand:soil mixture. Ten replicate pots (five replicates for two sets of tests) were prepared for each rate of application of test formulation. Stock dispersions of each of the test formulations were prepared by dispersing a sufficient amount of test material in 100 ml of water to give rates of application of 0.25, 0.5, 1, and 2 kg a.i./ha. Each pot received 10 ml of the appropriate suspension on the surface immediately around the tomato, and a control treatment for each of the two experimental set of pots received only water. Pots were also prepared as above with the same rates of the 100 ME cadusafos formulation and technical cadusafos. The RKN eggs used in the experiment were separated from a gelatinous matrix by vigorously shaking the roots of heavy galled tomato plants for four minutes in a 1% aqueous sodium hypochlorite solution. The resulting egg suspension was rapidly poured through nested 60, 325, and 500 mesh sieves. The eggs were collected on the 500 mesh sieve and gently rinsed with water to remove any excess sodium hypochlorite. The eggs were taken up in water, and the resulting aqueous suspension was appropriately diluted with water to give about 2000 eggs per plant which results in an effective inoculant level of about 1000 infective larvae per pot. The eggs were counted using a dissecting microscope. All the pots were infested with nematodes by pippetting the inoculum into the openings around the roots of the previously treated tomato transplants. Pots infested with nematodes 48 hours after soil treatment, hereafter referred to as “set 1”. Pots for examination of residual activity, hereafter referred to as “set 2”, were treated and maintained in the greenhouse for seven days prior to nematode infestations. Upon nematode infestation, the pots were maintained in the greenhouse for 28 days and monitored for phytotoxicity symptoms. At the conclusion of the 28 day period, the soil was washed away from the tomato plants roots and rated according to the following scheme: […]

CCOP(=O)(SC(C)CC)SC(C)CC (stereo not shown) [Technical]
Mean Root-Knot Gall Rating (infested 48 hours after treatment, rate 0.25 Kg/Ha): 2.4 | Mean Root-Knot Gall Rating (infested 48 hours after treatment, rate 0.5 Kg/Ha): 1.2 | Mean Root-Knot Gall Rating (second printing of Table 7, 48 hours after treatment, rate 0.25 Kg/Ha): 2.4 | Mean Root-Knot Gall Rating (second printing of Table 7, 48 hours after treatment, rate 0.5 Kg/Ha): 1.2
